Species on record: Rattus norvegicus
Assay: DrugMatrix - Regimen: Daily Repeat
Type: toxicity, organism-based, Sprague-Dawley
Parameters: regimen Daily Repeat, gender Male, age 6-8 weeks
Settings: in vivo, iv, vehicle 100 % SALINE; for ABSOLUTE BASOPHIL / ABSOLUTE EOSINOPHIL / ABSOLUTE LYMPHOCYTE / ABSOLUTE MONOCYTE / ABSOLUTE SEGMENTED NEUTROPHIL / BASOPHIL / EOSINOPHIL / ERYTHROCYTE COUNT / HEMATOCRIT / HEMOGLOBIN / LEUKOCYTE COUNT / LYMPHOCYTE / MEAN CORPUSCULAR HEMOGLOBIN / MEAN CORPUSCULAR HEMOGLOBIN CONCENTRATION / MEAN CORPUSCULAR VOLUME / MONOCYTE / NEUTROPHIL / NUCLEATED RED BLOOD CELLS / PLATELET COUNT: tissue Blood; for ALANINE AMINOTRANSFERASE / ALBUMIN / ALKALINE PHOSPHATASE / ASPARTATE AMINOTRANSFERASE / BLOOD UREA NITROGEN / CARBON DIOXIDE / CHLORIDE / CHOLESTEROL / CREATINE PHOSPHOKINASE / CREATININE / GLUCOSE / LACTATE DEHYDROGENASE / LIPASE / PHOSPHORUS / POTASSIUM / SODIUM / TOTAL BILIRUBIN / TOTAL PROTEIN / URIC ACID: tissue Plasma
[1] = 23 mg/kg, 120 h, dose level Low, time 5 day
[2] = 487 mg/kg, 72 h, dose level High, time 3 day
[3] = 487 mg/kg, 120 h, dose level High, time 5 day

In the case of `Nc1ccn([C@@H]2O[C@H](CO)[C@@H](O)[C@@H]2O)c(=O)n1` [CYTARABINE], the “ABSOLUTE BASOPHIL” value [1] is reported as 0 CELLS/uL, the “ABSOLUTE EOSINOPHIL” value [1] is reported as 0 CELLS/uL and the “ABSOLUTE LYMPHOCYTE” value [1] is reported as 5539 CELLS/uL. The “ABSOLUTE MONOCYTE” value [1] was 16.67 CELLS/uL, the “ABSOLUTE SEGMENTED NEUTROPHIL” value [1] was 244.33 CELLS/uL and the BASOPHIL [1] was 0%. The EOSINOPHIL [1] was 0%, the “ERYTHROCYTE COUNT” value [1] was 5.12 x10E6/uL and the HEMATOCRIT [1] was 33.83%. For the same compound, the HEMOGLOBIN [1] was 13.53 G/DL, the “LEUKOCYTE COUNT” value [1] was 5.8 x10E3/uL and the LYMPHOCYTE [1] was 95%. The “MEAN CORPUSCULAR HEMOGLOBIN” value [1] was 26.47 pg, the “MEAN CORPUSCULAR HEMOGLOBIN CONCENTRATION” value [1] was 40 G/DL and the “MEAN CORPUSCULAR VOLUME” value [1] was 66.2 fL. The MONOCYTE [1] was 0.33%, the NEUTROPHIL [1] was 4.67% and the “NUCLEATED RED BLOOD CELLS” value [1] was 0 /100WBC. For the same compound, the “PLATELET COUNT” value [1] was 1095.67 x10E3/uL, the “ALANINE AMINOTRANSFERASE” value [1] was 41.67 u/L and the ALBUMIN [1] was 4.1 G/DL. For the same compound, the “ALKALINE PHOSPHATASE” value [1] was 306.67 u/L, the “ASPARTATE AMINOTRANSFERASE” value [1] was 78.33 u/L and the “BLOOD UREA NITROGEN” value [1] was 12.67 mg/dL. For the same compound, the “CARBON DIOXIDE” value [1] was 26.33 mmol/L, the CHLORIDE [1] was 99.33 MEQ/L and the CHOLESTEROL [1] was 67.67 mg/dL. For the same compound, the “CREATINE PHOSPHOKINASE” value [1] was 261.33 u/L, the CREATININE [1] was 0.21 mg/dL and the GLUCOSE [1] was 172 mg/dL. For the same compound, the “LACTATE DEHYDROGENASE” value [1] was 75 u/L, the LIPASE [1] was 11.33 u/L and the PHOSPHORUS [1] was 10.17 mg/dL. For the same compound, the POTASSIUM [1] was 5.08 MEQ/L, the SODIUM [1] was 144.13 MEQ/L and the “TOTAL BILIRUBIN” value [1] was 0.17 mg/dL. The “TOTAL PROTEIN” value [1] was 5.77 G/DL, the “URIC ACID” value [1] was 0.87 mg/dL and the “ABSOLUTE BASOPHIL” value [2] was 0 CELLS/uL. The “ABSOLUTE EOSINOPHIL” value [2] was 62 CELLS/uL, the “ABSOLUTE LYMPHOCYTE” value [2] was 7623.33 CELLS/uL and the “ABSOLUTE MONOCYTE” value [2] was 62 CELLS/uL. The “ABSOLUTE SEGMENTED NEUTROPHIL” value [2] was 686 CELLS/uL, the BASOPHIL [2] was 0% and the EOSINOPHIL [2] was 0.67%. For the same compound, the “ERYTHROCYTE COUNT” value [2] was 4.4 x10E6/uL, the HEMATOCRIT [2] was 28.67% and the HEMOGLOBIN [2] was 11.3 G/DL. The “LEUKOCYTE COUNT” value [2] was 8.43 x10E3/uL, the LYMPHOCYTE [2] was 91.33% and the “MEAN CORPUSCULAR HEMOGLOBIN” value [2] was 25.7 pg. The “MEAN CORPUSCULAR HEMOGLOBIN CONCENTRATION” value [2] was 39.4 G/DL, the “MEAN CORPUSCULAR VOLUME” value [2] was 65.13 fL and the MONOCYTE [2] was 0.67%. The NEUTROPHIL [2] was 7.33%, the “NUCLEATED RED BLOOD CELLS” value [2] was 0 /100WBC and the “PLATELET COUNT” value [2] was 1093.33 x10E3/uL. For the same compound, the “ALANINE AMINOTRANSFERASE” value [2] was 45.67 u/L, the ALBUMIN [2] was 4.07 G/DL and the “ALKALINE PHOSPHATASE” value [2] was 302.33 u/L. The “ASPARTATE AMINOTRANSFERASE” value [2] was 81.33 u/L, the “BLOOD UREA NITROGEN” value [2] was 12 mg/dL and the “CARBON DIOXIDE” value [2] was 31 mmol/L. For the same compound, the CHLORIDE [2] was 101.67 MEQ/L, the CHOLESTEROL [2] was 77.67 mg/dL and the “CREATINE PHOSPHOKINASE” value [2] was 242.33 u/L. The CREATININE [2] was 0.19 mg/dL, the GLUCOSE [2] was 168.33 mg/dL and the “LACTATE DEHYDROGENASE” value [2] was 55.33 u/L. The LIPASE [2] was 10.67 u/L, the PHOSPHORUS [2] was 10.87 mg/dL and the POTASSIUM [2] was 5.4 MEQ/L. The SODIUM [2] was 145.23 MEQ/L, the “TOTAL BILIRUBIN” value [2] was 0.2 mg/dL and the “TOTAL PROTEIN” value [2] was 5.93 G/DL. The “URIC ACID” value [2] was 0.8 mg/dL, the “ABSOLUTE BASOPHIL” value [3] was 0 CELLS/uL and the “ABSOLUTE EOSINOPHIL” value [3] was 10 CELLS/uL. The “ABSOLUTE LYMPHOCYTE” value [3] was 3604.33 CELLS/uL, the “ABSOLUTE MONOCYTE” value [3] was 0 CELLS/uL and the “ABSOLUTE SEGMENTED NEUTROPHIL” value [3] was 152.33 CELLS/uL. The BASOPHIL [3] was 0%, the EOSINOPHIL [3] was 0.33% and the “ERYTHROCYTE COUNT” value [3] was 4.2 x10E6/uL. The HEMATOCRIT [3] was 26.53%, the HEMOGLOBIN [3] was 10.7 G/DL and the “LEUKOCYTE COUNT” value [3] was 3.77 x10E3/uL. For the same compound, the LYMPHOCYTE [3] was 95.67%, the “MEAN CORPUSCULAR HEMOGLOBIN” value [3] was 25.43 pg and the “MEAN CORPUSCULAR HEMOGLOBIN CONCENTRATION” value [3] was 40.37 G/DL. The “MEAN CORPUSCULAR VOLUME” value [3] was 63.07 fL, the MONOCYTE [3] was 0% and the NEUTROPHIL [3] was 4%. For the same compound, the “NUCLEATED RED BLOOD CELLS” value [3] was 0 /100WBC, the “PLATELET COUNT” value [3] was 1216.67 x10E3/uL and the “ALANINE AMINOTRANSFERASE” value [3] was 41.67 u/L. The ALBUMIN [3] was 4.1 G/DL, the “ALKALINE PHOSPHATASE” value [3] was 275.33 u/L and the “ASPARTATE AMINOTRANSFERASE” value [3] was 82.33 u/L. For the same compound, the “BLOOD UREA NITROGEN” value [3] was 13.33 mg/dL, the “CARBON DIOXIDE” value [3] was 26 mmol/L and the CHLORIDE [3] was 100.67 MEQ/L. The CHOLESTEROL [3] was 71.33 mg/dL, the “CREATINE PHOSPHOKINASE” value [3] was 326 u/L and the CREATININE [3] was 0.23 mg/dL. The GLUCOSE [3] was 159 mg/dL, the “LACTATE DEHYDROGENASE” value [3] was 65 u/L and the LIPASE [3] was 11 u/L. For the same compound, the PHOSPHORUS [3] was 9.23 mg/dL, the POTASSIUM [3] was 5.41 MEQ/L and the SODIUM [3] was 145.37 MEQ/L. The “TOTAL BILIRUBIN” value [3] was 0.2 mg/dL, the “TOTAL PROTEIN” value [3] was 5.7 G/DL and the “URIC ACID” value [3] was 0.57 mg/dL.

— ChEMBL document CHEMBL3885881, “DrugMatrix”
